≈ marks a conversion by molar mass, not a printed value. Calls of active or inactive are those of the source. The rule behind the calls is not given here. Peptide text beside a SMILES is read from it.
What was measured:
[1] = tested on: Plasmodium falciparum; test: Antimalarial activity against Plasmodium falciparum D6; type: functional, organism-based
[2] = tested on: Mycobacterium tuberculosis; test: Antimycobacterial activity against Mycobacterium tuberculosis at 128 ug/mL; type: functional
[3] = tested on: Human immunodeficiency virus 1; test: Antiviral activity against HIV1 in human PBM cells; type: functional, organism-based
[4] = tested on: Leishmania donovani; test: Antileishmanial activity against Leishmania donovani; type: functional, organism-based
[5] = tested on: Cryptococcus neoformans; test: Antifungal activity against Cryptococcus neoformans; type: functional, organism-based
[6] = tested on: Bel-7402; test: Cytotoxicity against human Bel-7402; type: functional; conditions: read-out: ED50 (the source's name)
[7] = tested on: Staphylococcus aureus; test: Antibacterial activity against Staphylococcus aureus; type: functional, organism-based
[8] = tested on: Pseudomonas aeruginosa; test: Antibacterial activity against Pseudomonas aeruginosa; type: functional, organism-based
[9] = tested on: Candida albicans; test: Antifungal activity against Candida albicans; type: functional, organism-based
[10] = tested on: Mycobacterium intracellulare; test: Antibacterial activity against Mycobacterium intracellular; type: functional, organism-based
[11] = tested on: Aspergillus fumigatus; test: Antifungal activity against Aspergillus fumigatus; type: functional, organism-based
[12] = tested on: Microglia; test: Antiinflammatory activity against rat neonatal microglia; type: functional, cell-based
[13] = tested on: Plasmodium falciparum; test: Antimalarial activity against Plasmodium falciparum W2; type: functional, organism-based
[14] = tested on: Mycobacterium tuberculosis; test: Antimycobacterial activity against Mycobacterium tuberculosis; type: functional, organism-based

| SMILES | IC50 [1] [µg/mL] | inhibition at 128 µg/mL [2] [%] | Activity [3] | Activity [4] | Activity [5] | EC50 [6] [µg/mL] | Activity [7] | Activity [1] | Activity [8] | Activity [9] | Activity [10] | Activity [11] | Activity [12] | Activity [13] | Activity [14] | Activity [2] | IC50 [5] [µg/mL] |
| --- | --- | --- | --- | --- | --- | --- | --- | --- | --- | --- | --- | --- | --- | --- | --- | --- | --- |
| Nc1ncc(C2=CCNC(=O)c3[nH]c(Br)c(Br)c32)[nH]1 [STEVENSINE] | 1.8 (≈ 4.65 µM) | 95 | inactive | inactive | inactive | – | – | – | – | – | – | – | – | – | – | – | – |
| CC(C)C[C@@H]1NC(=O)[C@H]([C@@H](C)O)NC(=O)[C@@H]2CCCN2C(=O)CNC(=O)[C@H](Cc2ccccc2)NC(=O)[C@@H]2CCCN2C(=O)[C@H](Cc2c[nH]c3ccccc23)NC1=O [PHAKELLISTATIN 13] (cyclo(FGPTLWP)) | – | – | – | – | – | < 0.01 | – | – | – | – | – | – | – | – | – | – | – |
| CC[C@H](C)[C@@H]1NC(=O)[C@@H]2CCCN2C(=O)[C@H](Cc2ccccc2)NC(=O)[C@@H]2CCCN2C(=O)[C@@H]2CCCN2C(=O)[C@H](Cc2ccc(O)cc2)NC(=O)[C@@H]2CCCN2C1=O (cyclo(FPIPYPP)) | – | – | inactive | – | inactive | – | inactive | inactive | inactive | inactive | inactive | inactive | inactive | inactive | inactive | – | – |
| Nc1nc([C@H]2[C@H](CNC(=O)c3cc(Br)c[nH]3)[C@@H](CNC(=O)c3cc(Br)c[nH]3)[C@@H]2c2c[nH]c(N)n2)c[nH]1 [SCEPTRIN] | – | – | inactive | inactive | – | – | – | – | – | – | – | – | – | – | – | inactive | 3.5 (≈ 5.64 µM) |
| CC[C@H](C)[C@@H]1NC(=O)[C@@H]2CCCN2C(=O)[C@H](Cc2ccc(O)cc2)NC(=O)[C@@H]2CCCN2C(=O)[C@H](CC(C)C)NC(=O)[C@@H]2CCCN2C(=O)[C@H](Cc2ccccc2)NC1=O (cyclo(FPLPYPI)) | – | – | inactive | – | inactive | – | inactive | inactive | inactive | inactive | inactive | inactive | inactive | inactive | inactive | – | – |
| Nc1ncc(/C=C/CNC(=O)c2cc(Br)c(Br)[nH]2)[nH]1 [OROIDIN] | 1.2 (≈ 3.08 µM) | 71 | inactive | inactive | inactive | – | – | – | – | – | – | – | – | – | – | – | – |
